Test results published in patent US20250195521A1 (Revolution Medicines, Inc., priority 2020, published 2025).
Several values for one entry are separate records, joined by “and”; a condition that tells them apart may be missing. Equal values may be shown once. Read-outs that look alike come from different tables or passages of the source.

Columns and labels:
[1] = tested on: K-Ras G12C (NCI-H358 cells); assay: Potency assay: pERK in NCI-H358 cells; type: cell-based, human; conditions: Homo sapiens; NCI-H358 cells, 4 hours; read-out: pERK EC50 (H358 KRAS G12C)
Summary of the method: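 Cells plated the day before were exposed for 4 h at 37° C, 5% CO2 to a 10-point, 3-fold DMSO dilution series (10 mM top stock), in duplicate. Phospho-ERK was read by AlphaLISA SureFire Ultra or by In-Cell Western with DRAQ5 DNA stain, and IC50 came from a 4-parameter sigmoidal fit.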

[2] = tested on: NCI-H358 cells (K-Ras G12C); assay: CellTiter-Glo cell viability, NCI-H358; type: cell-based, human; conditions: read-out: H358 Cell Viability IC50
Procedure: Note—The following protocol describes a procedure for monitoring cell viability of K-Ras mutant cancer cell lines in response to a compound of the invention. Other RAS isoforms may be employed, though the number of cells to be seeded will vary based on cell line used.
Test compounds (132.5 nl) were directly dispensed into the assay plates containing cells. […] On day 5, assay plates and their contents were equilibrated to room temperature for approximately 30 minutes. […] Luminescence was measured using the PerkinElmer Enspire. Data were normalized by the following: (Sample signal/Avg. DMSO)*100. The data were fit using a four-parameter logistic fit.

[3] = tested on: Capan-1 cells (K-Ras G12V); assay: CellTiter-Glo cell viability, Capan-1; type: cell-based, human; conditions: K-Ras G12V, 5-day treatment, read-out: Capan-1 Cell Viability IC50
Summary of the method: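 Endpoint: CellTiter-Glo luminescence on day 5, following ~30 min at room temperature. Data as (sample/mean DMSO)×100, four-parameter logistic fit.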

NCI-H358 (K-Ras G12C) = assay: CellTiter-Glo cell viability assay, NCI-H358; type: cell-based, human; conditions: Homo sapiens, NCI-H358, 120 h, 5-day treatment; read-out: H358 Cell Viability assay data (K-Ras G12C, IC50)
Summary of the method: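 After direct compound addition, plates were incubated to day 5 and equilibrated at room temperature for about 30 minutes before CellTiter-Glo reading. Values derive from luminescence relative to the DMSO mean, fitted with a four-parameter logistic model.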

KRAS G12V = KRAS G12V (Homo sapiens (Human), UniProt P01116+P62937, G12V); assay: Ras-Raf disruption/FRET/MOA assay (BRAF RBD, Cyclophilin A); type: biochemical; conditions: read-out: KRAS G12V FRET IC50
Chain of KRAS G12V (P01116 other isoform, or with tags, fused parts or gaps G12V): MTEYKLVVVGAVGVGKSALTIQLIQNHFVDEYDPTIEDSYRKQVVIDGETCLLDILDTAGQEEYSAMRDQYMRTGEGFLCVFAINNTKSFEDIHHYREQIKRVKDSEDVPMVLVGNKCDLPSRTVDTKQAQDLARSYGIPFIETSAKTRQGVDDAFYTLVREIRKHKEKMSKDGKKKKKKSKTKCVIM
Chain of KRAS G12V (P62937 whole entry): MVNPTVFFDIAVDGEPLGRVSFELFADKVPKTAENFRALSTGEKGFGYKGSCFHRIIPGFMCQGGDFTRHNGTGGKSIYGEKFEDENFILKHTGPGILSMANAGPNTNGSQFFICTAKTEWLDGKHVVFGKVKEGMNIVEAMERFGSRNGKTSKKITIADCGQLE
Summary of the method: (§1)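 TR-FRET read after 1.5 h with 10 nM anti-His Eu-W1024 and 50 nM anti-GST APC, following 3 h at 25 °C of GMPPNP-loaded His6-Ras (12.5 nM), GST-BRAF RBD (50 nM) and Cyclophilin A (25 μM) with compound from 30 μM final, 10 points, 3-fold. IC50 reported; pH 7.3 HEPES, 100 mM NaCl.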

KRAS WT = KRAS WT (Homo sapiens (Human), UniProt P01116+P62937); assay: as above; type: biochemical; conditions: read-out: KRAS WT FRET data IC50
Chain of KRAS WT (P01116 other isoform, or with tags, fused parts or gaps): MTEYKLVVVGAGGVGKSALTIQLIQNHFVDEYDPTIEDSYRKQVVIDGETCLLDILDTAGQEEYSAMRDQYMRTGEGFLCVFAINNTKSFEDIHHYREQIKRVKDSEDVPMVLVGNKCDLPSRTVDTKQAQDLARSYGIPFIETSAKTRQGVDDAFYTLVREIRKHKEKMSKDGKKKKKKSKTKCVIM
Chain of KRAS WT (P62937 whole entry): as the sequence (P62937 whole entry) above
Summary of the method: as §1

KRAS G12C = KRAS G12C (Homo sapiens (Human), UniProt P01116+P62937, G12C); assay: as above; type: biochemical; conditions: read-out: KRAS G12C FRET IC50
Chain of KRAS G12C (P01116-2 other isoform, or with tags, fused parts or gaps G12C): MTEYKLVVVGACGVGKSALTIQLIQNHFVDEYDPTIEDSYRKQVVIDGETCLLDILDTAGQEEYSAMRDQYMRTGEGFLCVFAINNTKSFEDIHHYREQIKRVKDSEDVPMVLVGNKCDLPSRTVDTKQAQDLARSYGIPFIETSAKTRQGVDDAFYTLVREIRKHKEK
Chain of KRAS G12C (P62937 whole entry): as the sequence (P62937 whole entry) above
Summary of the method: as §1

KRAS G13C = KRAS G13C (Homo sapiens (Human), UniProt P01116+P62937, G13C); assay: as above; type: biochemical; conditions: read-out: KRAS G13C FRET IC50
Chain of KRAS G13C (P01116 other isoform, or with tags, fused parts or gaps G13C): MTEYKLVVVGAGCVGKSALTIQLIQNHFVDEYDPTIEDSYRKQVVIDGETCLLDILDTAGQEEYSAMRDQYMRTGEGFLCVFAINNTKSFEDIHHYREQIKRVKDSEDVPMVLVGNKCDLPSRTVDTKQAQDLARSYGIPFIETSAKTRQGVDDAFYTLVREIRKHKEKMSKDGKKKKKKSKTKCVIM
Chain of KRAS G13C (P62937 whole entry): as the sequence (P62937 whole entry) above
Summary of the method: as §1

KRAS G13D = KRAS G13D (Homo sapiens (Human), UniProt P01116+P62937, G13D); assay: as above; type: biochemical; conditions: read-out: KRAS G13D FRET data IC50
Chain of KRAS G13D (P01116 other isoform, or with tags, fused parts or gaps G13D): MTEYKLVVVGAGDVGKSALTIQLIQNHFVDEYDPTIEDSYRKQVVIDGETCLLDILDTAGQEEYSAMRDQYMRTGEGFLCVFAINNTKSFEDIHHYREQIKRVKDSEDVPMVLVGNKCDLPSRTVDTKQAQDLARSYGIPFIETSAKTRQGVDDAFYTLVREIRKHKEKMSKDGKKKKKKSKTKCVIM
Chain of KRAS G13D (P62937 whole entry): as the sequence (P62937 whole entry) above
Summary of the method: as §1

NRAS G12C = NRAS G12C (Homo sapiens (Human), UniProt P01111+P62937, G12C); assay: as above; type: biochemical; conditions: read-out: NRAS G12C FRET data IC50
Chain of NRAS G12C (P01111 whole entry G12C): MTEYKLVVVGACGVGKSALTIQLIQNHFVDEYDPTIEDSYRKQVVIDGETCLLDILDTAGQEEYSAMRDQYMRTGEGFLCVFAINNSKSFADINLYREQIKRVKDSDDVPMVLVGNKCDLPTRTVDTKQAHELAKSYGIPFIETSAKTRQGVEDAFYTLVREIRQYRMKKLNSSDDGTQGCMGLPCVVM
Chain of NRAS G12C (P62937 whole entry): as the sequence (P62937 whole entry) above
Summary of the method: as §1

KRAS G12D = KRAS G12D (Homo sapiens (Human), UniProt P01116+P62937, G12D); assay: as above; type: biochemical; conditions: read-out: KRAS G12D FRET IC50
Chain of KRAS G12D (P01116 other isoform, or with tags, fused parts or gaps G12D): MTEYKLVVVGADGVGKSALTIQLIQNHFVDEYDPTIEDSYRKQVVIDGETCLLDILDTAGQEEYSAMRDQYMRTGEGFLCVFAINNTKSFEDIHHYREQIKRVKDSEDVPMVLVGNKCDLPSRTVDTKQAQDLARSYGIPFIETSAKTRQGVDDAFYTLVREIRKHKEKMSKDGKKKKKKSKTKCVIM
Chain of KRAS G12D (P62937 whole entry): as the sequence (P62937 whole entry) above
Summary of the method: as §1

KRAS G12S = KRAS G12S (Homo sapiens (Human), UniProt P01116+P62937, G12S); assay: as above; type: biochemical; conditions: read-out: KRAS G12S FRET IC50
Chain of KRAS G12S (P01116 other isoform, or with tags, fused parts or gaps G12S): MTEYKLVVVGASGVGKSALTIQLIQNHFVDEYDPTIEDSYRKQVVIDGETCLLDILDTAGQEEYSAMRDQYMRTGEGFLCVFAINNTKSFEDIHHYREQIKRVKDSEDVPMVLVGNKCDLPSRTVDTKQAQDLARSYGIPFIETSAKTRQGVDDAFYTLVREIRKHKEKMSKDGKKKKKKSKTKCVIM
Chain of KRAS G12S (P62937 whole entry): as the sequence (P62937 whole entry) above
Summary of the method: as §1

[4] = Homo sapiens, NCI-H358, 120 h, K-Ras G12C, 5-day treatment

CCn1c(-c2cccnc2[C@H](C)OC)c2c3cc(ccc31)-c1cc(O)cc(c1)C[C@H](NC(=O)[C@H](C(C)C)N(C)C(=O)[C@H]1C[C@@H]1O)C(=O)N1CCC[C@H](N1)C(=O)OCC(C)(C)C2 (single isomer, unassigned) [Compound A346]
EC50 [1]: < 5000 nM | IC50 ([2]; K-Ras G12C, 5-day treatment): 100 to 1000 nM | IC50 [3]: 100 to 1000 nM

CCn1c(-c2cnccc2COC)c2c3cc(ccc31)-c1cc(O)cc(c1)C[C@H](NC(=O)[C@H](C(C)C)N(C)C(=O)C1(C)COC1)C(=O)N1CCC[C@H](N1)C(=O)OCC(C)(C)C2 [Compound A49]
IC50 (NCI-H358 (K-Ras G12C)): > 10000 nM | IC50 (KRAS G12V): 100 to 1000 nM | IC50 (KRAS WT): 100 to 1000 nM | IC50 (KRAS G12C): 100 to 1000 nM | IC50 (KRAS G13C): 1000 to 10000 nM | IC50 (KRAS G13D): 1000 to 10000 nM | IC50 (NRAS G12C): 1000 to 10000 nM | IC50 (KRAS G12D): 1000 to 10000 nM | IC50 (KRAS G12S): 1000 to 10000 nM

CCn1c(-c2cnccc2COC)c2c3cc(ccc31)-c1cc(O)cc(c1)C[C@H](NC(=O)[C@H](C(C)C)N(C)C(=O)OC1CCOC1)C(=O)N1CCC[C@H](N1)C(=O)OCC(C)(C)C2 (stereo partly drawn) [Compound A50, oxolan-3-yl-N-[(1S)-1-{[(8S,14S)-22-ethyl-4-hydroxy-21-[4-(methoxymethyl)pyridin-3-yl]-18,18-dimethyl-9,15-dioxo-16-oxa-10,22,28-triazapentacyclo [18.5.2.1^2,6.1^10,14.0^23,27]nonacosa-1 (26),2,4,6 (29),20,23 (27),24-heptaen-8-yl]carbamoyl}-2-methylpropyl]-N-methylcarbamate]
IC50 ([2]; Homo sapiens, NCI-H358, 120 h): 1000 to 10000 nM

CCn1c(-c2cnccc2COC)c2c3cc(ccc31)-c1cc(O)cc(c1)C[C@H](NC(=O)[C@H](C(C)C)N(C)C(=O)C1CNC1)C(=O)N1CCC[C@H](N1)C(=O)OCC(C)(C)C2 [Compound A87]
EC50 [1]: < 5000 nM | IC50 (NCI-H358 (K-Ras G12C)): 10 to 100 nM | IC50 ([3]; Homo sapiens, CAPAN-1, 120 h): > 10000 nM | IC50 (KRAS G12V): 100 to 1000 nM and 1000 to 10000 nM | IC50 (KRAS WT): 10 to 100 nM and 100 to 1000 nM | IC50 (KRAS G12C): 100 to 1000 nM and 10 to 100 nM | IC50 (KRAS G13C): 100 to 1000 nM and 10 to 100 nM | IC50 (KRAS G13D): 10 to 100 nM and 100 to 1000 nM | IC50 (NRAS G12C): 10 to 100 nM and 100 to 1000 nM | IC50 (KRAS G12D): 100 to 1000 nM | IC50 (KRAS G12S): 100 to 1000 nM and 10 to 100 nM

CCn1c(-c2cccnc2[C@H](C)OC)c2c3cc(ccc31)-c1csc(n1)C[C@H](NC(=O)[C@H](C(C)C)N(C)C(=O)O[C@H]1CCN(C)C1)C(=O)N1CCC[C@H](N1)C(=O)OCC(C)(C)C2 [Compound A173]
IC50 [2, 4]: 100 to 1000 nM

CCn1c(-c2cccnc2[C@H](C)OC)c2c3cc(ccc31)-c1cc(O)cc(c1)C[C@H](NC(=O)[C@H](C(C)C)N(C)C(=O)[C@H]1C[C@@H]1C)C(=O)N1CCC[C@H](N1)C(=O)OCC(C)(C)C2 [Compound A287]
IC50 [2, 4]: 100 to 1000 nM | IC50 ([3]; Homo sapiens, CAPAN-1, 120 h): 100 to 1000 nM

CCn1c(-c2cccnc2[C@H](C)OC)c2c3cc(ccc31)-c1csc(n1)C[C@H](NC(=O)[C@H](C(C)C)N(C)C(=O)N1CC[C@@H](O)C1)C(=O)N1CCC[C@H](N1)C(=O)OCC(C)(C)C2 [Compound A376]
EC50 [1]: < 5000 nM | IC50 [2, 4]: 10 to 100 nM | IC50 ([3]; Homo sapiens, CAPAN-1, 120 h): 10 to 100 nM

CCn1c(-c2cccnc2[C@H](C)OC)c2c3cc(ccc31)-c1cc(O)cc(c1)C[C@H](NC(=O)[C@H](C(C)C)N(C)C(=O)[C@H]1CCN(C(=O)[C@]3(C)CCCN3)C1)C(=O)N1CCC[C@H](N1)C(=O)OCC(C)(C)C2 [Compound A380]
EC50 [1]: < 5000 nM | IC50 ([3]; Homo sapiens, CAPAN-1, 120 h): 1000 to 10000 nM | IC50 (KRAS G12V): 10 to 100 nM | IC50 (KRAS WT): 10 to 100 nM | IC50 (KRAS G12C): 10 to 100 nM | IC50 (KRAS G13C): 10 to 100 nM | IC50 (KRAS G13D): 10 to 100 nM | IC50 (NRAS G12C): 10 to 100 nM | IC50 (KRAS G12D): 10 to 100 nM | IC50 (KRAS G12S): 10 to 100 nM

CCn1c(-c2cccnc2[C@H](C)OC)c2c3cc(ccc31)-c1cc(O)cc(c1)C[C@H](NC(=O)[C@H](C(C)C)N(C)C(=O)[C@H]1CCCC[C@@H]1N)C(=O)N1CCC[C@H](N1)C(=O)OCC(C)(C)C2 [Compound A394]
EC50 [1]: < 5000 nM | IC50 ([3]; Homo sapiens, CAPAN-1, 120 h): 1000 to 10000 nM | IC50 (KRAS G12V): 100 to 1000 nM | IC50 (KRAS WT): 100 to 1000 nM | IC50 (KRAS G12C): 100 to 1000 nM | IC50 (KRAS G13C): 10 to 100 nM | IC50 (KRAS G13D): 100 to 1000 nM | IC50 (NRAS G12C): 100 to 1000 nM | IC50 (KRAS G12D): 100 to 1000 nM | IC50 (KRAS G12S): 100 to 1000 nM

CCn1c(-c2cccnc2[C@H](C)OC)c2c3cc(ccc31)-c1cc(O)cc(c1)C[C@H](NC(=O)[C@H](C(C)C)N(C)C(=O)[C@H]1CCCC[C@H]1N)C(=O)N1CCC[C@H](N1)C(=O)OCC(C)(C)C2 [Compound A419]
EC50 [1]: < 5000 nM | IC50 ([3]; Homo sapiens, CAPAN-1, 120 h): 100 to 1000 nM | IC50 (KRAS G12V): 100 to 1000 nM | IC50 (KRAS WT): 10 to 100 nM | IC50 (KRAS G12C): 10 to 100 nM | IC50 (KRAS G13C): 10 to 100 nM | IC50 (KRAS G13D): 10 to 100 nM | IC50 (NRAS G12C): 10 to 100 nM | IC50 (KRAS G12D): 10 to 100 nM | IC50 (KRAS G12S): 10 to 100 nM

CCn1c(-c2cccnc2[C@H](C)OC)c2c3cc(ccc31)-c1csc(n1)C[C@H](NC(=O)[C@H](C(C)C)N(C)C(=O)N1CC([C@@H](C)N(C)C)C1)C(=O)N1CCC[C@H](N1)C(=O)OCC(C)(C)C2 [Compound A458]
EC50 [1]: < 5000 nM | IC50 [2, 4]: 10 to 100 nM | IC50 ([3]; Homo sapiens, CAPAN-1, 120 h): 10 to 100 nM

CCn1c(-c2cccnc2[C@H](C)OC)c2c3cc(ccc31)-c1csc(n1)C[C@H](NC(=O)[C@H](C(C)C)N(C)C(=O)N1CCC[C@@H](N(C)C)C1)C(=O)N1CCC[C@H](N1)C(=O)OCC(C)(C)C2 [Compound A531]
EC50 [1]: < 5000 nM | IC50 [2, 4]: 10 to 100 nM | IC50 ([3]; Homo sapiens, CAPAN-1, 120 h): 10 to 100 nM

CCn1c(-c2cccnc2[C@H](C)OC)c2c3cc(ccc31)-c1csc(n1)C[C@H](NC(=O)[C@H](C(C)C)N(C)C(=O)N(C)[C@@H]1CCCN(C)C1)C(=O)N1CCC[C@H](N1)C(=O)OCC(C)(C)C2 [Compound A587]
EC50 [1]: < 5000 nM | IC50 [2, 4]: 10 to 100 nM

CCn1c(-c2cccnc2[C@H](C)OC)c2c3cc(ccc31)-c1csc(n1)C[C@H](NC(=O)[C@H](C(C)C)N(C)C(=O)N1CCN(C(=O)[C@H]3CCCN3C)CC1)C(=O)N1CCC[C@H](N1)C(=O)OCC(C)(C)C2 [Compound A595]
EC50 [1]: < 5000 nM | IC50 [2, 4]: 10 to 100 nM | IC50 ([3]; Homo sapiens, CAPAN-1, 120 h): 100 to 1000 nM
